Data reported in patent publication US10633448B2, “IGF-1R antibody-drug-conjugate and its use for the treatment of cancer” (PIERRE FABRE MEDICAMENT, priority 2014, dated 2020).

What was measured:
[1] = tested on: MDA-MB-231 (breast adenocarcinoma) cells; assay: ATPlite antiproliferative assay, MDA-MB-231; format: cell-based, human; conditions: 72 h drug treatment
Method: A549 (Non Small Cell Lung Cancer—ATCC CCL-185) and MDA-MB-231 (breast adenocarcinoma—ATCC HTB-26) cells were cultured in Minimum Essential Medium Eagle (MEM) with 5% fetal calf serum (FCS) and Dulbecco's modified Eagle Medium (DMEM) with 10% FCS respectively. MCF7 (breast ductal carcinoma—ATCC HTB-22) and SN-12C (kidney carcinoma—ATCC) cells were maintained in RPMI1640 medium (without phenol red for MCF7 cells) containing 10% FCS. All the media were supplemented with fungizone (1.25 μg/mL) and penicillin-streptomycin (100 U/100 μg/mL). Cells were cultured under standard conditions in an incubator at 37° C., 5% CO2 and 95% atmospheric humidity.
Selected drugs were investigated for their antiproliferative activity using an ATPlite proliferation assay (Perkin Elmer, Villebon sur Yvette, France) on a comprehensive panel of 4 cell lines. […] On day 4, cell viability was evaluated by dosing the ATP released by viable cells. The number of viable cells was analyzed in comparison with the number of solvent treated cells. The EC50 values were determined with curve fitting analysis (non linear regression model with a sigmoidal dose response, variable hill slope coefficient), performed with the algorithm provided by the GraphPad Software (GraphPad Software Inc., CA, USA).

lysosome functions = assay: Inhibition of Ab degradation with lysosome inhibitor; format: cell-based; conditions: cells with 10 μg/ml Ab, 2 h at 37° C.
Method: In order to confirm that antibodies reached the lysosome were they are degraded, cells were treated or not with bafilomycine A1, a potent inhibitor of lysosome functions. Cells were then incubated with 10 μg/ml of Ab to be tested at 4° C., washed and incubated for 2 h at 37° C. The internalized Ab was detected after cell permeabilisation using a secondary anti-mouse IgG-Alexa 488 Ab.

Row | Compound | EC50 [1] | degradation of intracellular Ab (lysosome functions)
1 | methyl (S)-2-((2R,3R)-3-((S)-1-((3R,4S,5S)-4-((S)-2-((S)-2-((3-aminobenzyl)(methyl)amino)-3-methylbutanamido)-N,3-dimethylbutanamido)-3-methoxy-5-methylheptanoyl)pyrrolidin-2-yl)-3-methoxy-2-methylpropanamido)-3-phenylpropanoate, trifluoroacetic acid [Compound 15] | 0.17 nM | –
2 | CO/C1=C\C(C)=C\[C@@H](C)[C@@H](O)[C@@H](C)C/C(C)=C/C=C/[C@H](OC)[C@@H]([C@@H](C)[C@@H](O)[C@H](C)[C@@]2(O)C[C@@H](O)[C@H](C)[C@@H](C(C)C)O2)OC1=O [bafilomycine A1] | – | prevented the degradation of intracellular Ab
